This is an account of results in article PMC3596469 (European journal of pharmaceutical sciences : official …, 2013).

Where two headings read alike, the source gives them in different places. A value given as a limit tells only on which side of the number the result lay.

For data set [1] the following is noted: mouse, in vivo, po, 1 mg/kg; cited from earlier work.
For data set [2] the following is noted: for oral bioavailability: from AUC values; for blood levels at the lowest oral dose: oral 0.1 mg/kg, 24 h sampling.
Data set [3] has as its system LPS-induced release of inflammatory cytokines in plasma. In words: Plasma cytokines in LPS-challenged murine model. Format: in vivo, Male Swiss Webster mice.
The nature of data set [4]: PK after i.v. injection in mice, 2-compartmental analysis. The note with it: i.v. 0.01 mg/kg.
Data set [5] deals with plasma epoxides and diols (biomarker of sEH action). Briefly: Plasma oxylipin profile. Format: in vivo, Male Swiss Webster mice.
In a further data set the test system is LPS-challenged mice. Briefly: Food intake and body weight in LPS-challenged murine model. Format: in vivo, Male Swiss Webster mice. The note with it: for animals' appetite, 1st day post LPS challenge: oral administration.
For data set [6] the following is noted: mouse, in vivo, po.
In the next data set the target is T1, Human sEH (Homo sapiens, UniProt P34913).
T1 sequence (P34913 1-555): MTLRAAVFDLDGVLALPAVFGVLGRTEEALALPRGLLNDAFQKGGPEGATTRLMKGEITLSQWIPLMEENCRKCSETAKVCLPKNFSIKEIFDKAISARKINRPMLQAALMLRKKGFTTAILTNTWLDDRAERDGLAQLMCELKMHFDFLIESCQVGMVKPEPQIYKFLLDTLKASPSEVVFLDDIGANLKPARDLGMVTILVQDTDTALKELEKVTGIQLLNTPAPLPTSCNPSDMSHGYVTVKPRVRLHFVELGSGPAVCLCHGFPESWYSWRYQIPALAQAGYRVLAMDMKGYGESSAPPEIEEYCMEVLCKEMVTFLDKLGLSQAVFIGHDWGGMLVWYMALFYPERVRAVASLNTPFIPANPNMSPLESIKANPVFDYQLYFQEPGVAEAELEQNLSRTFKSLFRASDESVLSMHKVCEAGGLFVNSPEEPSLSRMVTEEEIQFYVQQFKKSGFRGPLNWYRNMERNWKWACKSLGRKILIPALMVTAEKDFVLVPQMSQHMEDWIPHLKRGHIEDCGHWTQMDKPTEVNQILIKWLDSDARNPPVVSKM
Briefly: Radioactive sEH inhibition assay. Format: biochemical. The note with it: read-out: IC50 Human sEH (value in parentheses); [3H] t-DPPO as substrate.

[7] abbreviates: mice, oral gavage 0.1 mg/kg, blood.
Setting [8] is: mice, oral gavage 0.3 mg/kg, blood.
[9] abbreviates: mice, oral gavage 1.0 mg/kg, blood.
[10] abbreviates: mice, oral gavage 3.0 mg/kg, blood.
Setting [11] is: LPS 3 mg/kg + inhibitor 3 mg/kg single dose, terminated 48 h.
Where [12] appears, read: LPS 3 mg/kg + inhibitor 3 mg/kg, terminated 24 h.
Setting [13] is: male, Swiss Webster, mouse, whole blood, po, 0.1 mg/kg.
The mark [14] stands for this setting: male, Swiss Webster, mouse, whole blood, po, 0.3 mg/kg.
Where [15] appears, read: male, Swiss Webster, mouse, whole blood, po, 1 mg/kg.
The mark [16] stands for this setting: male, Swiss Webster, mouse, whole blood, po, 3 mg/kg.

One may read the MRT as a mean duration of stay, worked out from the concentration-time curve. `CC(=O)N1CCC(NC(=O)NC23CC4CC(CC(C4)C2)C3)CC1` [APAU, 1-(1-acetypiperidin-4-yl)-3-adamantanylurea]: in data set [1], the AUCt is given as 1.4±0.3 0.35±0.15 uM•h and the MRT was 20±4.2 22.2±4.3 h.
The Tmax is the time from dosing to the highest level. In general, Cmax refers to the peak of the concentration-time curve. With `O=C(Nc1ccc(OC(F)(F)F)cc1)NC1CCN(C(=O)C2CC2)CC1` [TCPU, 1-(4-trifluoro-methoxy-phenyl)-3-(1-cyclopropanecarboxylpiperidin-4-yl)urea], the AUCt in data set [2] (mice, oral gavage 0.1 mg/kg) was 2.2 ± 1.1 µM·h; in data set [2] (mice, oral gavage 0.3 mg/kg), 16.6 ± 8.8 µM·h; in data set [2] (mice, oral gavage 1.0 mg/kg) it was 43.8 ± 5.1 µM·h; in data set [2] (mice, oral gavage 3.0 mg/kg), 94.3 ± 8.0 µM·h. Further, the MRT in data set [2] (mice, oral gavage 0.1 mg/kg) turned out to be 18.9 ± 6.6 h; in data set [2] (mice, oral gavage 0.3 mg/kg), 16.9 ± 5.4 h; in data set [2] (mice, oral gavage 1.0 mg/kg), 24.0 ± 1.8 h; in data set [2] (mice, oral gavage 3.0 mg/kg) it was 32.1 ± 5.6 h. Moreover, the Tmax came out at 5.3 ± 1.2 h in data set [2] (mice, oral gavage 0.1 mg/kg); 3.2 ± 2.2 h in data set [2] (mice, oral gavage 1.0 mg/kg); 3.9 ± 2.5 h in data set [2] (mice, oral gavage 3.0 mg/kg). Further, the Cmax in data set [2] (setting [7]) was 270 ± 120 nM; in data set [2] (setting [8]), 1680 nM; in data set [2] (setting [9]), 2560 nM; in data set [2] (setting [10]), 5160 nM.
Turning to `CCC(=O)N1CCC(NC(=O)Nc2ccc(OC(F)(F)F)cc2)CC1` [TPPU, 1-(4-trifluoro-methoxy-phenyl)-3-(1-propionylpiperidin-4-yl)urea], the IL-6 in plasma was determined as 9 ± 0.5 pg/mL in data set [3] (setting [11]) and 118 ± 65 pg/mL in data set [3] (setting [12]). Moreover, the IL-10 in plasma in data set [3] (setting [11]) was 7.7 ± 0.5 pg/mL; in data set [3] (setting [12]), 8.7 ± 0.4 pg/mL. For the same molecule, the figures for the INF-γ in plasma in data set [3] (setting [11]) and in data set [3] (setting [12]) were 2.0 ± 0.5 pg/mL and 9.7 ± 3.0 pg/mL, respectively. Moreover, the MCP-1 in plasma was 260 ± 50 pg/mL in data set [3] (setting [11]) and 1970 ± 900 pg/mL in data set [3] (setting [12]). In addition, the TNF-α in plasma in data set [3] (setting [11]) is 11 ± 1 pg/mL; in data set [3] (setting [12]) it was 28 ± 14 pg/mL. Moreover, the “reduction of cytokine or chemokine release one day after treatment” value in data set [3] (LPS-challenged mice) is given as “Neither the administration of TPPU nor the t-AUCB treatment demonstrated a beneficial effect”. In data set [4], this molecule showed an AUCt of 3.5 ± 0.4 µM·h. Further, the “Cl (clearance)” value in data set [4] stood at 20 ± 1.7 mL/min/kg. The “T1/2β (half life of elimination phase)” value in data set [4] is reported as over 24 h. In data set [4], the “Vdss (volume distribution at steady state)” value came out at 4.8 ± 1.8 L/kg. In addition, in data set [5] (1- and 2-day post treatment, LPS-challenged mice), the “plasma levels of both EETs and EpOMEs” value is “significantly increased”. In data set [5] (2-day post LPS treatment), the “plasma levels of both DHOMEs and DHETs” value is “significantly decreased”. For the same molecule, the “animal's appetite (pilot study)” value in the data set with LPS-challenged mice (1 mg/kg) is given as “no favorable effect was observed”. Also, the “animal's appetite at 2 days post treatment (pilot study)” value with LPS-challenged mice (oral 3 mg·kg^-1) is “improved”. For the same molecule, the “animals' appetite, 1st day post LPS challenge” value in the data set with LPS-challenged mice (LPS-challenged mice) is “did not improve”. In addition, the “animals' appetite, 2nd day post LPS challenge” value in the data set with LPS-challenged mice (oral, TPPU 3 mg/kg once, t-AUCB 3 mg/kg twice, LPS-challenged mice) was “significantly improved”. In addition, the oral bioavailability in data set [2] (mice, oral 0.1 mg/kg vs i.v. 0.01 mg/kg) was 43 ± 25%; in data set [2] (mice, oral 0.3 mg/kg vs i.v. 0.01 mg/kg), 36 ± 5%; in data set [2] (mice, oral 1.0 mg/kg vs i.v. 0.01 mg/kg), 31 ± 2%; in data set [2] (mice, oral 3.0 mg/kg vs i.v. 0.01 mg/kg), 18 ± 3%. For the same molecule, the “blood levels at the lowest oral dose” value in data set [2] (mice) is “above their in vitro IC50 values throughout the sampling time”. The MRT stood at 56.9 ± 5.4 h in data set [2] (mice, oral gavage 0.1 mg/kg); 69.5 ± 2.2 h in data set [2] (mice, oral gavage 0.3 mg/kg); 26.8 ± 2.2 h in data set [2] (mice, oral gavage 1.0 mg/kg); 24.0 ± 0.2 h in data set [2] (mice, oral gavage 3.0 mg/kg). Further, the Tmax stood at 2 ± 0 h in data set [2] (mice, oral gavage 0.1 mg/kg); 2 ± 0 h in data set [2] (mice, oral gavage 0.3 mg/kg); 2.7 ± 1.2 h in data set [2] (mice, oral gavage 1.0 mg/kg); 3.7 ± 1.8 h in data set [2] (mice, oral gavage 3.0 mg/kg). Further, the Cmax in data set [2] (setting [7]) was 445 ± 200 nM; in data set [2] (setting [8]), 1560 nM; in data set [2] (setting [9]), 5370 nM; in data set [2] (setting [10]) it was 7100 nM.
What is called AUC(0-t) is exposure summed from dosing to a finite time, without extrapolation to infinity. Lower therefore signals less exposure. `O=C(Nc1ccc(OC(F)(F)F)cc1)N[C@H]1CC[C@H](Oc2ccc(C(=O)O)cc2)CC1` [t-TUCB, trans-4-[4-[3-(4-Trifluoromethoxy-phenyl)-Ureido]-cyclohexyloxy]-Benzoic acid] came in with a Cmax in data set [2] (setting [13]) of under 0.4 nM. For the same molecule, in data set [2] (setting [14]), the AUC(0-t) amounted to 0.4 µM·h, the concentration peaked (Cmax) at 45 nM, the MRT is 12.6 h and the Tmax came out at 6 h. In data set [2] (setting [15]), the exposure AUC(0-t) turned out to be 4.5 µM·h, the concentration peaked (Cmax) at 410 nM, the MRT is 12.6 h and the Tmax is 5.9 h. Moreover, in data set [2] (setting [16]), the AUC(0-t) amounted to 16.1 µM·h, the Cmax is 2120 nM, the MRT is 8 h and the Tmax is 2.6 h. For the same molecule, in data set [2] (mice), the “blood levels at the lowest oral dose” value is reported as “under the respective detection limit”.
One may read the IC50 as the concentration that inhibits the measured activity by half. With “1-chlorophenyl-3-(1-propionylpiperidin-4-yl)urea [CPPU]”, the AUCt in data set [6] (0.1 mg/kg) is 2.3 ± 0.4 µM·h; in data set [6] (0.3 mg/kg) it was 6.1 ± 1.7 µM·h; in data set [6] (1 mg/kg), 31.7 ± 18.4 µM·h; in data set [6] (3 mg/kg), 140 ± 93 µM·h. Besides, the MRT was found to be 13.1 ± 13.5 h in data set [6] (0.1 mg/kg), 16.4 ± 6.3 h in data set [6] (0.3 mg/kg), 17.2 ± 7.3 h in data set [6] (1 mg/kg) and 17.1 ± 1.3 h in data set [6] (3 mg/kg). At Human sEH, the IC50 was 280 nM.
Regarding `CS(=O)(=O)N1CCC(NC(=O)Nc2ccc(OC(F)(F)F)cc2)CC1` [TUPS, 1-(1-methanesulfonyl-piperidin-4-yl)-3-(4-trifluoromethoxy-phenyl)-urea], the Cmax is under 0.4 nM in data set [2] (setting [13]), 1650 nM in data set [2] (setting [15]) and 2860 nM in data set [2] (setting [16]). Also, the values for the AUC(0-t) in data set [2] (setting [14]), in data set [2] (setting [15]) and in data set [2] (setting [16]) were 5.3 µM·h, 24.2 µM·h and 48.5 µM·h, respectively. Also, the MRT in data set [2] (setting [14]) amounted to 21.5 h; in data set [2] (setting [15]), 17.4 h; in data set [2] (setting [16]), 22.7 h. Besides, the “blood levels at the lowest oral dose” value in data set [2] (mice) is recorded as “under the respective detection limit”.
Consider `O=C(NC12CC3CC(CC(C3)C1)C2)N[C@H]1CC[C@H](Oc2ccc(C(=O)O)cc2)CC1` [t-AUCB, trans-4-[4-(3-adamantan-1-yl-ureido)-cyclohexyloxy]-benzoic acid, reference compound], for which the “animals' appetite, 1st day post LPS challenge” value in the data set with LPS-challenged mice (LPS-challenged mice) was “did not improve”.
